pKi: −log10 of the molar value.
How the values were obtained:
human M2-receptors = target: T1, human M2-receptors (Homo sapiens, UniProt P08172); assay: radioligand binding assay, M2 receptor ([3H]-N-methyl scopolamine); settings: membranes of CHO-K1 cells expressing human M2; [3H]-N-methyl scopolamine 0.1-0.3 nM; 60 min, room temperature
T1 construct: expressed in transfected cells; host or cells: CHO-K1 clone cells; crude membrane fraction
T1 sequence (P08172 1-466): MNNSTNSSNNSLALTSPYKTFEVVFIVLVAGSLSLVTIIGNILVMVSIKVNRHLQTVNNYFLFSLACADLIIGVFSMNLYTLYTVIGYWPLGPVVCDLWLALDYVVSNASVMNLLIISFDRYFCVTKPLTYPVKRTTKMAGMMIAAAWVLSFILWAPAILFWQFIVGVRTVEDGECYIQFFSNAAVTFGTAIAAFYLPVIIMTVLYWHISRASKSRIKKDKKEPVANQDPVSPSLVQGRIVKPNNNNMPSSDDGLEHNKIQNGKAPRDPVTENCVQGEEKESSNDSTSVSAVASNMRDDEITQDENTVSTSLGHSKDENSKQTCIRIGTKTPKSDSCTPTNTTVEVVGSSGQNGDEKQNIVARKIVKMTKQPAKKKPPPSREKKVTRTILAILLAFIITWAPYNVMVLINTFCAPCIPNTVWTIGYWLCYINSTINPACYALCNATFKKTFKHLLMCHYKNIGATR
Description: (§1) Cell Lines and Membrane Preparations
(§2) CHO—K1 clone cells expressing the human M1, M2 or M3-receptors (Swissprot P11229, P08172, P20309 respectively) were harvested in Ca^++/Mg^++ free phosphate-buffered saline and collected by centrifugation at 1500 rpm for 3 min. The pellets were resuspended in ice cold buffer A (15 mM Tris-HCl pH 7.4, 2 mM MgCl2, 0.3 mM EDTA, 1 mM EGTA) and homogenized by a PBI politron (setting 5 for 15 s).
(§3) Radioligand Binding Conditions
(§4) The day of experiment, frozen membranes were resuspended in buffer C (50 mM Tris-HCl pH 7.4, 2.5 mM MgCl2, 1 mM EDTA). […] The non specific binding was determined in the presence of cold N-methyl scopolamine 10 μM. Samples (final volume 0.75 ml) were incubated at room temperature for 120 min for Ml, 60 min for M2 and 90 min for M3 binding assay. The reaction was terminated by rapid filtration through GF/B Unifilter plates and two washes (0.75 ml) with cold buffer C using a Packard Filtermate Harvester. Radioactivity on the filters was measured by a microplate scintillation counter TopCount NXT (Camberra Packard).

human M3-receptors = target: T2, human M3-receptors (Homo sapiens, UniProt P20309); assay: radioligand binding assay, M3 receptor ([3H]-N-methyl scopolamine); settings: membranes of CHO-K1 cells expressing human M3; [3H]-N-methyl scopolamine 0.1-0.3 nM; 90 min, room temperature
T2 construct: expressed in transfected cells; host or cells: CHO-K1 clone cells; crude membrane fraction
Description: as §1, §2, §3, §4

T2 sequence (P20309 whole entry): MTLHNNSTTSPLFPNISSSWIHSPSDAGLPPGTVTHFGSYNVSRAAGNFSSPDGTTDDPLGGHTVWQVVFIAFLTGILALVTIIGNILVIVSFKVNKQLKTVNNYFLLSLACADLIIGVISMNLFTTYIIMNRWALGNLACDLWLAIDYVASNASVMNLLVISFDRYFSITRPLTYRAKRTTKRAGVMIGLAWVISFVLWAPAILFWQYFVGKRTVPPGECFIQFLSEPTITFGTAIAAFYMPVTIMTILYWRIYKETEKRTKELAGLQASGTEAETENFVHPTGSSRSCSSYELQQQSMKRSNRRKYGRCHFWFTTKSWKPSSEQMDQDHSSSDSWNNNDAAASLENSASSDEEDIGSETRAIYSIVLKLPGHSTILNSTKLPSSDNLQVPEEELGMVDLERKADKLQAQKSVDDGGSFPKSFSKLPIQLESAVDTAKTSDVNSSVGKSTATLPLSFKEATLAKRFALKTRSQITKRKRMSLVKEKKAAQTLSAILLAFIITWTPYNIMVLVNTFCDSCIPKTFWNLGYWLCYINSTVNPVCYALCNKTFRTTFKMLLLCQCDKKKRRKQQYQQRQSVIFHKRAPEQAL

pKi (human M2-receptors) | pKi (human M3-receptors) | SMILES
7.10 | – | O=C1NC(c2ccccc2)(c2ccccc2)CN1C1CCN(Cc2ccccc2)CC1 [Compound 27a, 3-(1-benzyl-piperidin-4-yl)-5 5-diphenyl-imidazolidin-2-one]
6.69 | – | O=C1NC(c2ccc(F)cc2)(c2ccc(F)cc2)CN1C1CCN(Cc2ccccc2)CC1 [Compound 27h]
7.09 | 8.71 | C[N+]1(CC(=O)c2cccs2)CC[C@@H](N2CC(c3ccc(F)cc3)(c3ccc(F)cc3)NC2=O)C1 (some centres unmarked) [Compound 19bp]
7.01 | – | O=C1NC(c2cccs2)(c2cccs2)CN1C1CCN(Cc2ccccc2)CC1 [Compound 27i]
7.13 | – | O=C1NC(c2ccccc2)(C2CCCCC2)CN1C1CCN(Cc2ccccc2)CC1 (centres unmarked) [Compound 27c]
7.05 | 8.79 | C[N+]1(CC(=O)c2cccs2)CC[C@@H](N2CC(c3ccc(F)cc3)(c3ccc(F)cc3)NC2=O)C1 (some centres unmarked) [Compound 19bq]

Continued, compound first:

SMILES | pKi (human M2-receptors) | pKi (human M3-receptors)
O=C1NC(c2cccs2)(c2cccs2)CN1C1CCN(Cc2cccc(F)c2)CC1 [Compound 18ad] | 6.73 | –
O=C1NC(c2ccc(F)cc2)(c2ccc(F)cc2)CN1C1CCN(Cc2cccc(Cl)c2)CC1 [Compound 18ab] | 6.02 | –
Cc1cccc(CN2CCC(N3CC(c4cccs4)(c4cccs4)NC3=O)CC2)c1 [Compound 18ag] | 6.97 | –
O=C1NC(c2ccccc2)(c2ccccc2)CN1C1CCN(Cc2cccc(Cl)c2)CC1 [Compound 18e] | 6.49 | –
O=C1NC(c2ccc(F)cc2)(c2ccc(F)cc2)CN1C1CCN(Cc2cccc(F)c2)CC1 [Compound 18an] | 5.94 | –
Cc1cccc(CN2CCC(N3CC(c4ccccc4)(c4ccccc4)NC3=O)CC2)c1 [Compound 18i] | 6.65 | –

Source: US20090005364A1, “Azole Derivatives With Antimuscarinic Activity” (priority 2004, published 2009)
